From US20210337789A1, “Derivatives of m-Guaiacol, Their Preparation and Their Uses” (Universite de Caen Normandie, priority 2018, published 2021)
Read-outs that look alike come from different tables or passages of the source.

Key:
[1] = test system: KB cells (epidermoid carcinoma); experiment: In vitro cytotoxicity, cell proliferation test (MTS) on KB cells; assay type: cell-based; settings: Homo sapiens, read-out: percentage of inhibition of cell growth
Protocol: The human cell strain KB (epidermoid carcinoma) was obtained from the NCI (National Cancer Institute) and cultivated in the D-MEM medium added with 10% of foetal bovine serum (Invitrogen) in the presence of penicillin, streptomycin and fungizone in flasks of […] under CO2 at 5%. The cells were deposited on tissue culture microplates with 96 wells and a density of 650 cells/well in 200 μl of medium and treated 24 hours later with compounds of the invention dissolved in DMSO at concentrations going from 0.5 nM to 10 μM using a Biomek 3000 (Beckman-Coulter) automaton. The controls received the same volume of DMSO (1% of final volume). After 72 hours of exposure, the MTS reagent (Celltiter 96Aqueous One solution, Promega) was added and incubated for 3 hours at 37° C.: the absorbance was measured at 490 nm and the results of inhibition of the cell proliferation were calculated according to the ratio [(1−(OD490treated/OD490control))×100].
Results: Cytotoxicity at 10^−5 and 10^−6M on Triplicate KB Cells, Measured after 72 Hours of Exposure.
The percentage of inhibition of cell growth with respect to the cells receiving the same quantity of DMSO is outlined in the table below.

[2] = test system: Micrococcus luteus reference strain; experiment: Bacterial growth (optical density at 600 nm) on Micrococcus luteus reference strain; assay type: cell-based; set-up: key: 0 = no effect, 1 = pure only, 2 = several concentrations, 3 = strong at all; settings: in DMSO diluted in PBS, compared with triclosan
Protocol: (§1) The bacterial growth is evaluated by measuring the optical density (DO) at 600 nm using NanoDrop.
(§2) This ratio permits a classification of the molecules in 4 effect levels: • 0=no effect observed; • 1=effect observed only when the molecule is tested pure; • 2=effect observed at several concentrations, but which gradually decreases the dilutions; • 3=strong effect observed at each concentration of molecule tested.
The molecules are put in a solution in DMSO and diluted in PBS.

[3] = test system: Klebsiella pneumoniae; experiment: Bacterial growth screening on wild-type phenotype strain, K. pneumoniae; assay type: cell-based
Protocol: as §1, §2
(§3) A screening of molecules of the invention on several wild-type phenotype strains has been carried out.
(§4) The strains initially selected are: • Gram+: Streptococcus equi subsp zooepidemicus and Staphylococcus aureus • Gram−: Escherichia coli, Klebsiella pneumoniae and Stenotrophomonas maltophila.

[4] = test system: Escherichia coli; experiment: Bacterial growth screening on wild-type phenotype strain, E. coli; assay type: cell-based
Protocol: as §1, §2, §3, §4

[5] = test system: Streptococcus equi subsp zooepidemicus; experiment: Bacterial growth screening on wild-type phenotype strain, S. zooepidemicus; assay type: cell-based
Protocol: as §1, §2, §3, §4

[6] = test system: Staphylococcus aureus; experiment: Bacterial growth screening on wild-type phenotype strain, S. aureus; assay type: cell-based
Protocol: as §1, §2, §3, §4

[7] = test system: Stenotrophomonas maltophila; experiment: Bacterial growth screening on wild-type phenotype strain, S. maltophila; assay type: cell-based
Protocol: as §1, §2, §3, §4

[8] = test system: S. aureus strains presenting high levels of resistance; experiment: Bacterial growth on S. aureus strains presenting high levels of resistance; assay type: cell-based, Staphylococcus aureus; settings: for Δ DO: 0.1 mg/ml; for Effects (0 < 1 < 2 < 3): molecules at 1, 0.5 and 0.1 mg/ml, triclosan at 0.1 mg/ml
Protocol: as §1, §2
(§5) Compounds of the invention were tested on 4 strains of E. coli, 3 strains of K. pneumoniae and 4 strains of S. aureus with the resistance profiles below.

[9] = test system: E. coli strains presenting high levels of resistance; experiment: Bacterial growth on E. coli strains presenting high levels of resistance; assay type: cell-based, Escherichia coli; settings: for Δ DO: 0.1 mg/ml; for Effects (0 < 1 < 2 < 3): molecules at 1, 0.5 and 0.1 mg/ml, triclosan at 0.1 mg/ml
Protocol: as §1, §2, §5

[10] = test system: K. pneumoniae strains presenting high levels of resistance; experiment: Bacterial growth on K. pneumoniae strains presenting high levels of resistance; assay type: cell-based, Klebsiella pneumoniae; settings: for Δ DO: 0.1 mg/ml; for Effects (0 < 1 < 2 < 3): molecules at 1, 0.5 and 0.1 mg/ml, triclosan at 0.1 mg/ml
Protocol: as §1, §2, §5

[11] = 10^−5 M, KB cells, triplicate, 72 hours of exposure, with respect to DMSO control
[12] = 10^−6 M, KB cells, triplicate, 72 hours of exposure, with respect to DMSO control

## COc1cc(O)c(I)cc1I [sr7584]
[1]; KB, 72 h
  inhibition at 1 µM: 0%
  inhibition at 10 µM: 0%
[2]
  Effect level: 2

## COc1cc(O)c(F)cc1Cl [sr7580]
[1]; [11]
  inhibition at 10 µM: 16 ± 4%
[1]; [12]
  inhibition at 1 µM: 5 ± 8%

## COc1c(Cl)c(O)c(Cl)c(F)c1Cl [sr7587]
[1]; [11]
  inhibition at 10 µM: 0%
[1]; [12]
  inhibition at 1 µM: 8 ± 4%

## COc1cc(O)c(Cl)cc1F [sr7581]
[1]; [11]
  inhibition at 10 µM: 0%
[1]; [12]
  inhibition at 1 µM: 0%

## COc1cc(O)c(Cl)cc1Br [sr7583]
[1]; [11]
  inhibition at 10 µM: 0%
[1]; [12]
  inhibition at 1 µM: 0%
[3]
  Effect level, K. pneumoniae: 2
[4]
  Effect level, E. coli: 2
[2]
  Effect level: 3

## COc1cc(O)c(Cl)c(F)c1F [sr7610]
[2]
  Effect level: 2

## COc1cc(O)c(Cl)c(Br)c1F [sr7614]
[1]; [11]
  inhibition at 10 µM: 6 ± 4%
[1]; [12]
  inhibition at 1 µM: 0%
[5]
  Effect level, S. zooepidemicus: 2
[3]
  Effect level, K. pneumoniae: 2
[6]
  Effect level, S. aureus: 2
[4]
  Effect level, E. coli: 3
[7]
  Effect level, S. maltophila: 2
[2]
  Effect level: 3

## COc1c(Cl)cc(Cl)c(O)c1C [sr7607]
[1]; [11]
  inhibition at 10 µM: 0%
[1]; [12]
  inhibition at 1 µM: 0%
[2]
  Effect level: 2

## COc1cc(O)c(Br)cc1Br [sr7582]
[1]; KB, 72 h
  inhibition at 1 µM: 0%
  inhibition at 10 µM: 1 ± 7%

## Oc1cc(I)c(F)cc1F [sr7618]
[2]
  Effect level: 2

## COc1cc(O)c(Br)c(F)c1F [sr7611]
[2]
  Effect level: 2

## Oc1cc(Cl)ccc1Oc1ccc(Cl)cc1Cl [Triclosan, reference compound]
[1]; KB, 72 h
  inhibition at 1 µM: 5 ± 12%
  inhibition at 10 µM: 78 ± 3%
[8]; S. aureus Strain 1
  Δ DO: 0.441
  Effects (0 < 1 < 2 < 3): 3
[8]; S. aureus Strain 2
  Δ DO: 0.459
  Effects (0 < 1 < 2 < 3): 3
[8]; S. aureus Strain 3
  Δ DO: 0.532
  Effects (0 < 1 < 2 < 3): 3
[8]; S. aureus Strain 4
  Δ DO: 0.490
  Effects (0 < 1 < 2 < 3): 3
[9]; E. coli Strain 1
  Δ DO: 1.005
  Effects (0 < 1 < 2 < 3): 3
[9]; E. coli Strain 2
  Δ DO: 1.197
  Effects (0 < 1 < 2 < 3): 3
[9]; E. coli Strain 3
  Δ DO: 0.948
  Effects (0 < 1 < 2 < 3): 3
[9]; E. coli Strain 4
  Δ DO: 1.080
  Effects (0 < 1 < 2 < 3): 3
[10]; K. pneumoniae Strain 1
  Δ DO: 0.824
  Effects (0 < 1 < 2 < 3): 3
[10]; K. pneumoniae Strain 2
  Δ DO: 0.893
  Effects (0 < 1 < 2 < 3): 3
[10]; K. pneumoniae Strain 3
  Δ DO: 1.092
  Effects (0 < 1 < 2 < 3): 3

## COc1cc(O)c(Cl)c(Br)c1 [sr7609]
[3]
  Effect level, K. pneumoniae: 2
[6]
  Effect level, S. aureus: 2
[4]
  Effect level, E. coli: 2
[7]
  Effect level, S. maltophila: 2
[2]
  Effect level: 3

## COc1c(Cl)cc(Cl)c(O)c1Cl [sr7586]
[1]; [11]
  inhibition at 10 µM: 0%
[1]; [12]
  inhibition at 1 µM: 6 ± 8%

## COc1cc(O)c(I)c(F)c1F [sr7612]
[2]
  Effect level: 2

## COc1cc(O)c(Cl)c(C)c1Cl [sr7608]
[1]; [11]
  inhibition at 10 µM: 7 ± 11%
[1]; [12]
  inhibition at 1 µM: 0%
[2]
  Effect level: 2
